# Source: ChEMBL document CHEMBL2073896, “Bromocriptine transcriptionally activates the multidrug resistance gene (pgp2/mdr1b) by a novel pathway” (J Biol Chem, 1997)
# Key:
# Format in all cases: functional, cell-based
# [1] = biological target: Multidrug resistance protein 1a (Rattus norvegicus) (UniProt Q6PSM0); assay: TP_TRANSPORTER: Western blot, H35 hepatoma cells
# [2] = biological target: Multidrug resistance protein 1a (Rattus norvegicus) (UniProt Q6PSM0); assay: TP_TRANSPORTER: Northern blot from H35 hepatoma cells
# [3] = biological target: ATP-dependent translocase ABCB1 (Rattus norvegicus, UniProt P43245); assay: TP_TRANSPORTER: Luciferase assay in H35 hepatoma cells
# Sequence of ATP-dependent translocase ABCB1 (P43245 whole entry): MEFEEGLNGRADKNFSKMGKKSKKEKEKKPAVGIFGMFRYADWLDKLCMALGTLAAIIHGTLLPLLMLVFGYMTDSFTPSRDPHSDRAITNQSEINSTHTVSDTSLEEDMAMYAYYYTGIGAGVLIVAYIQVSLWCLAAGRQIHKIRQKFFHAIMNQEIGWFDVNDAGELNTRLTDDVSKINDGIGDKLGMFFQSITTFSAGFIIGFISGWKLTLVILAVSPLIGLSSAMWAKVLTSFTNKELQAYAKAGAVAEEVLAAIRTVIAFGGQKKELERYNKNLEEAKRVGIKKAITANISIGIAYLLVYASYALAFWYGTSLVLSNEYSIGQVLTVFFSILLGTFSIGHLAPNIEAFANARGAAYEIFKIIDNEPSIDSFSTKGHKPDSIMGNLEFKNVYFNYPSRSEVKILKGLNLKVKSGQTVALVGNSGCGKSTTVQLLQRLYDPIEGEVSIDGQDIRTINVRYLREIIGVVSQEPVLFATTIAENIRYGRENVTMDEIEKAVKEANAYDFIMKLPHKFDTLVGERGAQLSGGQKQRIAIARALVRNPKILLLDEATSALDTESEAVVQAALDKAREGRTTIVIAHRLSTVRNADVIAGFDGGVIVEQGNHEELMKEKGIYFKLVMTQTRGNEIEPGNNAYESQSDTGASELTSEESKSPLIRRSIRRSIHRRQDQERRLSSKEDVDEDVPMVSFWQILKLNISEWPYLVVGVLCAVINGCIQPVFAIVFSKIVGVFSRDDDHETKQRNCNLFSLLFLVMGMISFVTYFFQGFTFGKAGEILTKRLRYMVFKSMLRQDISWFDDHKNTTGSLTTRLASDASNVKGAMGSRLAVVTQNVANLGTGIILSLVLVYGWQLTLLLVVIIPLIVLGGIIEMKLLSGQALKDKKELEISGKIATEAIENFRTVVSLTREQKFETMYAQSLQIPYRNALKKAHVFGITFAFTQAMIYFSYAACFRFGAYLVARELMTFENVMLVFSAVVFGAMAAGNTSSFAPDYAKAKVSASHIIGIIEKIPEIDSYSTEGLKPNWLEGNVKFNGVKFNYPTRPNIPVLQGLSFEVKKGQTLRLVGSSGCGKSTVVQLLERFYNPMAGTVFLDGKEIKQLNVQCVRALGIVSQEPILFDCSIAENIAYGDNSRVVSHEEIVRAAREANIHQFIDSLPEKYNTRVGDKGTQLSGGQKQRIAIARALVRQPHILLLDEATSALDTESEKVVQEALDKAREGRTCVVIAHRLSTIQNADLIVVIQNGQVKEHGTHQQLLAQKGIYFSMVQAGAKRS
# Sequence of Multidrug resistance protein 1a (Rattus norvegicus) (Q6PSM0 as listed by the source): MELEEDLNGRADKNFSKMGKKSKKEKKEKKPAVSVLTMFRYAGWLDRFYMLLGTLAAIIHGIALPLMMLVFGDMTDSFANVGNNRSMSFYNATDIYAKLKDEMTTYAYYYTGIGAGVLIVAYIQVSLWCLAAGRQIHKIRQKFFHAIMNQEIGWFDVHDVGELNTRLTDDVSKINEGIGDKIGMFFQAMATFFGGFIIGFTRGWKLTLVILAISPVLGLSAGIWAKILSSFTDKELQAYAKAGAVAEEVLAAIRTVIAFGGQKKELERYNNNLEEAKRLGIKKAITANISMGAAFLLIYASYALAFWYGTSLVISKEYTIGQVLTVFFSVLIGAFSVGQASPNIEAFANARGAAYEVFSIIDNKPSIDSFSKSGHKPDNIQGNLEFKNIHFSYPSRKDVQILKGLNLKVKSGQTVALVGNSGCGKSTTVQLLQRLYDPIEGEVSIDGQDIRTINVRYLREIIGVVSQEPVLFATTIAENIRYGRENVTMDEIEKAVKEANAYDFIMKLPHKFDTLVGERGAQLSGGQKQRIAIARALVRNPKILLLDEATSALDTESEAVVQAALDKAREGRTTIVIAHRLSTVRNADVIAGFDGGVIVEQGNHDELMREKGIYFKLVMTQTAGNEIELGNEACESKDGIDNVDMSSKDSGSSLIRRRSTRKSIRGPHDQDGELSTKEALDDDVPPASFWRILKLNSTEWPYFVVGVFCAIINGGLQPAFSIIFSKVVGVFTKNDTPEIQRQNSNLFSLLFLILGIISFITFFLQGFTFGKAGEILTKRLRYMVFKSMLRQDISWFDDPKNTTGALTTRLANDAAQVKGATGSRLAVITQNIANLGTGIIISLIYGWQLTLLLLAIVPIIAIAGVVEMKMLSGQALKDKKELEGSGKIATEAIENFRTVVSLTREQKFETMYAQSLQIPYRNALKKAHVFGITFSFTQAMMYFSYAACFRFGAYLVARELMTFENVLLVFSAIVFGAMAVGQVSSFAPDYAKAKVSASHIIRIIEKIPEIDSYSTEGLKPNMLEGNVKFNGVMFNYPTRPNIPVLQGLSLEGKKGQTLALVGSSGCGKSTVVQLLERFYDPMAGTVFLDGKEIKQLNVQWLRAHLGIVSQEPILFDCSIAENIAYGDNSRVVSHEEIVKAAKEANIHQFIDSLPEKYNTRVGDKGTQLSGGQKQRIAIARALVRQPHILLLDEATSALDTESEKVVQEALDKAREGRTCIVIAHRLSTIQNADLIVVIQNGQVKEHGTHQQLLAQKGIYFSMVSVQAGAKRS
Structure (SMILES),Activity [1],Activity [2],Activity [3]
CC(C)C[C@H]1C(=O)N2CCC[C@H]2[C@]2(O)O[C@](NC(=O)[C@@H]3C=C4c5cccc6[nH]c(Br)c(c56)C[C@H]4N(C)C3)(C(C)C)C(=O)N12,inducer [+],inducer [+],
CCCN1CCC[C@@H]2Cc3n[nH]cc3C[C@H]21 [QUINPIROLE],,,inducer [+]
CCCN1CCc2cccc3c2[C@H]1Cc1ccc(O)c(O)c1-3.Cl,,,inducer [+]
